Assay results taken from PubChem BioAssay AID2009 (NMMLSC, 2009).
pEC50, pKi: −log10 of the molar value. The source made the active and inactive calls.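 The calls were made as follows: active = EC50 of 30 microM or lower and a span of response of at least a set limit; inactive = the rest.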

Target: Cdc42 activated mutant (human), GST fusion
Experiment: constitutively active Cdc42 fluorescent GTP binding inhibition – biochemical, oxadiazole analogs, multiplex bead flow cytometry, Ki, SAR follow-up (AID 2009)
Conditions: Bead-based flow cytometry, Bodipy-FL-GTP binding; for pKi: measured here: Ki calculated from EC50

Row | EC50 | pEC50 | pKi | Compound
1 | > 30000 nM (inactive) |  |  | COc1ccc(-c2noc(CCC(=O)N3CCN(c4cccc(Br)c4)CC3)n2)cc1
2 | > 30000 nM (inactive) |  |  | COc1ccc(-c2noc(CCC(=O)N3CCN(c4ccc(Br)cc4)CC3)n2)cc1
3 |  | 5.52 | 6.33 | Cc1ccc(-c2noc(CCC(=O)N3CCN(c4cc(C)ccc4C)CC3)n2)cc1
4 |  | 5.77 | 6.59 | COc1ccc(-c2coc(CCC(=O)N3CCN(c4cc(C)ccc4C)CC3)n2)cc1
5 |  | 5.41 | 6.22 | Cc1ccc(C)c(N2CCN(C(=O)CCc3nc(-c4cccc(Cl)c4)no3)CC2)c1
6 |  | 5.58 | 6.39 | Cc1ccc(C)c(N2CCN(C(=O)CCc3nc(-c4ccc(Br)cc4)no3)CC2)c1
7 |  | 5.31 | 6.12 | COc1ccccc1-c1noc(CCC(=O)N2CCN(c3cc(C)ccc3C)CC2)n1
8 |  | 5.97 | 6.77 | COc1ccc(-c2noc(CCC(=O)N3CCN(c4ccccc4F)CC3)n2)cc1
9 |  | 5.30 | 6.11 | Cc1ccc(C)c(N2CCN(C(=O)CCc3nc(-c4ccc(C(F)(F)F)cc4)no3)CC2)c1
10 |  | 5.73 | 6.55 | Cc1ccc(C)c(N2CCN(C(=O)CCc3nc(-c4cccc(F)c4)no3)CC2)c1
11 |  | 5.57 | 6.39 | Cc1ccc(C)c(N2CCN(C(=O)CCc3nc(-c4cccc(C(F)(F)F)c4)no3)CC2)c1
12 |  | 5.53 | 6.34 | COc1ccc(-c2ccc(CCC(=O)N3CCN(c4cc(C)ccc4C)CC3)s2)cc1
13 | > 30000 nM (inactive) |  |  | COc1ccc(-c2noc(CCC(=O)N3CCN(c4cccc(C(F)(F)F)c4)CC3)n2)cc1
14 |  | 6.18 | 7.00 | Cc1ccc(C)c(N2CCN(C(=O)CCc3nc(-c4ccc(F)cc4)no3)CC2)c1
15 |  | 5.64 | 6.46 | COc1ccc(-c2noc(CCC(=O)N3CCN(c4cc(C)ccc4C)CC3)n2)cc1
16 | > 30000 nM (inactive) |  |  | COc1ccc(-c2ccc(CCC(=O)N3CCN(c4cc(C)ccc4C)CC3)o2)cc1
17 |  | 5.63 | 6.44 | COc1ccc(-c2noc(CCC(=O)N3CCN(c4cccc(C)c4)CC3)n2)cc1
18 |  | 5.84 | 6.66 | COc1ccc(-c2cc(CCC(=O)N3CCN(c4cc(C)ccc4C)CC3)on2)cc1
19 |  | 5.29 | 6.10 | COc1ccc(-c2noc(CCCC(=O)N3CCN(c4cc(C)ccc4C)CC3)n2)cc1
20 |  | 5.78 | 6.59 | Cc1ccc(C)c(N2CCN(C(=O)CCc3nc(-c4ccc(Cl)cc4)no3)CC2)c1
21 | inactive |  | 6.72 | COc1ccc(-c2noc(CCC(=O)N3CCN(c4ccc(C)cc4)CC3)n2)cc1
22 |  | 5.73 | 6.54 | Cc1cccc(-c2noc(CCC(=O)N3CCN(c4cc(C)ccc4C)CC3)n2)c1
23 |  | 5.78 | 6.59 | Cc1ccc(C)c(N2CCN(C(=O)CCc3nc(-c4ccc(N(C)C)cc4)no3)CC2)c1
24 |  | 5.39 | 6.20 | COc1ccc(-c2cccc(CCC(=O)N3CCN(c4cc(C)ccc4C)CC3)c2)cc1
25 |  | 5.63 | 6.44 | Cc1ccc(C)c(N2CCN(C(=O)CCc3nc(-c4cccc(Br)c4)no3)CC2)c1
26 |  | 5.70 | 6.51 | COc1ccc(-c2noc(CCC(=O)N3CCN(c4ccccc4C(F)(F)F)CC3)n2)cc1

Row | EC50 | pEC50 | pKi | Compound
27 |  | 5.79 | 6.60 | COc1ccc(-c2noc(CCC(=O)N3CCC(c4cc(C)ccc4C)CC3)n2)cc1
28 |  | 6.15 | 6.96 | COc1ccc(-c2noc(CCC(=O)N3CCN(c4ccc(OC)cc4)CC3)n2)cc1
29 | inactive |  | 6.77 | COc1ccc(-c2noc(CCC(=O)N3CCN(c4cccc(F)c4)CC3)n2)cc1
30 |  | 5.98 | 6.80 | COc1ccc(-c2noc(CCC(=O)N3CCN(c4ccccc4C)CC3)n2)cc1
31 |  | 5.84 | 6.66 | COc1ccc(-c2noc(CCC(=O)N3CCN(c4ccccc4Br)CC3)n2)cc1
32 |  | 5.92 | 6.74 | Cc1ccc(C)c(N2CCN(C(=O)CCc3nc(-c4ccccc4Br)no3)CC2)c1
33 |  | 5.81 | 6.62 | Cc1ccc(C)c(N2CCN(C(=O)CCc3nc(-c4ccccc4C)no3)CC2)c1
34 | > 30000 nM (inactive) |  |  | COc1ccc(-c2cc(CCC(=O)N3CCN(c4cc(C)ccc4C)CC3)[nH]n2)cc1
35 |  | 5.82 | 6.64 | Cc1ccc(C)c(N2CCN(C(=O)CCc3nc(-c4ccccc4F)no3)CC2)c1
36 |  | 5.15 | 5.96 | COc1ccc(-c2noc(CCC(=O)N3CCN(c4cccc(Cl)c4)CC3)n2)cc1
37 | > 30000 nM (inactive) |  |  | COc1ccc(-c2noc(CCC(=O)N3CCN(c4ccc(C(F)(F)F)cc4)CC3)n2)cc1
38 |  | 6.02 | 6.82 | Cc1ccc(C)c(N2CCN(C(=O)CCc3nc(-c4ccccc4Cl)no3)CC2)c1
39 |  | 5.51 | 6.32 | COc1ccc(-c2noc(CCC(=O)N3CCN(c4ccccc4OC)CC3)n2)cc1
40 | inactive |  | 6.85 | COc1ccc(-c2noc(CCC(=O)N3CCN(c4ccc(F)cc4)CC3)n2)cc1
41 |  | 4.76 | 5.57 | COc1ccc(-c2noc(CCCCC(=O)N3CCN(c4cc(C)ccc4C)CC3)n2)cc1
42 | inactive |  | 5.75 | COc1ccc(-c2noc(CC(=O)N3CCN(c4cc(C)ccc4C)CC3)n2)cc1
43 |  | 5.86 | 6.68 | COc1ccc(-c2noc(CCC(=O)N3CCN(c4cccc(C)c4C)CC3)n2)cc1
44 | > 30000 nM (inactive) |  |  | COc1ccc(-c2ccc(CCC(=O)N3CCN(c4cc(C)ccc4C)CC3)[nH]2)cc1
45 | inactive |  | 7.70 | COc1ccc(-c2noc(CCC(=O)N3CCN(c4ccc(Cl)cc4)CC3)n2)cc1
46 |  | 5.43 | 6.24 | COc1cccc(-c2noc(CCC(=O)N3CCN(c4cc(C)ccc4C)CC3)n2)c1
47 |  | 6.21 | 7.00 | Cc1ccc(C)c(N2CCN(C(=O)CCc3nc(-c4ccccc4)no3)CC2)c1
48 | inactive |  | 6.96 | COc1ccc(-c2noc(CCC(=O)N3CCN(c4ccccc4)CC3)n2)cc1
49 |  | 5.69 | 6.51 | COc1ccc(-c2noc(CCC(=O)N3CCN(c4ccccc4Cl)CC3)n2)cc1
50 | inactive |  | 6.12 | COc1ccc(-c2noc(CCC(=O)N3CCN(c4cccc(OC)c4)CC3)n2)cc1
51 |  | 5.77 | 6.59 | Cc1ccc(C)c(N2CCN(C(=O)CCc3nc(-c4ccccc4C(F)(F)F)no3)CC2)c1
